Reference: patent publication US11801235B2, “Methods and compositions for delivery of biotin to mitochondria” (priority 2020, dated 2023)
Square brackets hold non-standard residues; d marks the D form. Peptide text beside a SMILES is read from it. * marks the point of attachment. Biotin = O=C1N[C@H]2[C@H](CS[C@H]2CCCCC(=O)*)N1; Dmt = Cc1cc(O)cc(C)c1C[C@H](N)C(=O)O

Columns and labels:
HK-2 cells [1] = test: In vitro scratch assay (scratch area); assay type: cell-based, human; details: 10 nM; for scratch area after 24 hours, microscopic images FIG. 15: serum-free DMEM, 24 hours after mechanical scratch; for closure of the scratch area compared to control, FIG. 16 and FIG. 17 / effectiveness in reducing scratch area compared to free biotin, FIG. 16 and FIG. 17: serum-free, 24 hours
Protocol: (§1) Certain exemplary peptide-conjugated biotin molecules can accelerate wound healing in cell cultures. The in vitro scratch assay is an easy and well-developed method to measure cell proliferation and migration over a “wound area” in vitro. This assay involves creating a “scratch” in a cell monolayer with a pipette tip and then examining the rate at which cells proliferate and migrate to close the scratch.
3×10^5 cells were plated per well in 6-well plates in DMEM at 37° C. in a humidified incubator with 5% CO2 for one day prior to the experiment. To mimic the microenvironment of wounds in vitro, serum-free medium was used in the scratch assay. On the day of the scratch assay, the medium was replaced with serum-free DMEM, and a line scraped across the cell monolayer using a p1000 pipette tip. Cells were washed to remove cell debris and replaced with DMEM alone (control), or DMEM containing 10 nM biotin or peptide-conjugated biotin molecules.
(§2) The scratch area was examined immediately (day 0) using a Nikon Eclipse Ti2 fluorescence microscope. Six different field were captured for each sample using 4×objective. The scratch area (cell-free zone) was calculated using ImageJ software, an open-source Java image processing program inspired by NIH Image (National Institute of Health). The scratch area was re-examined after 24 hours (day 1), and the area was normalized to the area determined on day 0 for the same sample. All results were calculated as change from no-treatment control and averaged for the six fields.

[2] = system: ARPE-19 human retinal pigment epithelial cell monolayers; test: Cell proliferation at scratch edge (PCNA staining); assay type: cell-based; details: ARPE-19 cells, 10 nM, serum-free, 24 hours after scratch
Excerpt: (§3) Re-epithelialization of a wound area require proliferation of cells at the wound edge, which can be impaired in most wounds due to lack of blood flow to deliver nutrients and/or growth factor(s) that can be necessary for cell proliferation. Cell proliferation in the wound edge can be monitored by proliferating cell nuclear antigen (PCNA) staining. To mimic the microenvironment of wounds in vitro, serum-free medium was used for the scratch assay in cell cultures.
(§4) Proliferating cells were identified by immunostaining with antibody to proliferating cell nuclear antigen (PCNA) according to standard procedures as presented in IHC World. PCNA staining was performed using the same plate of cells after determination of scratch area. […] All cell nuclei stain blue with Hoechst, but nuclei of proliferating cells stain red. The number of proliferating cells per field was quantified by the intensity of red nuclear stain and normalized to intensity of blue nuclear stain (determined by Nikon NIS-Elements Imaging Software).

[3] = system: HK-2 human renal epithelial cell monolayers; test: Cell proliferation at scratch edge (PCNA staining); assay type: cell-based; details: HK-2 cells, 10 nM, serum-free, 24 hours after scratch; for number of proliferating cells normalized to all nuclei, FIG. 21: compared to control or biotin
Excerpt: as §3, §4

HK-2 cells [4] = test: Mitochondrial potential (TMRM) of cells at the scratch edge; assay type: cell-based, human; details: 10 nM, serum-free, 24 hours after scratch; for mitochondrial potential (red fluorescence) normalized to nuclear number, FIG. 25: compared to control
Excerpt: Rapidly dividing cells can need ATP to support the synthesis of important building blocks. Tissue injury can cause rapid mitochondrial depolarization that compromises ATP production and/or results in cell death. The loss of ATP can further impair cell proliferation and/or tissue repair. Mitochondrial potential can be monitored in the cells at the edge of the scratch area using the cell-permeable potential-dependent dye TMRM (tetramethylrhodamine methyl ester). TMRM can accumulate in negatively charged polarized mitochondria and can be detected as red fluorescence. To mimic the microenvironment of wounds in vitro, serum-free medium was used in the scratch assay. […] HK-2 cells were then incubated with 5 nM TMRM in DMEM without phenol red and incubated for 30 min. Cells were then covered with live cell image buffer and imaged using Nikon Eclipse Ti2 fluorescent microscope (20× objective).

[5] = system: ARPE-19 human retinal pigment epithelial cells; test: Biotin uptake by streptavidin-Alexa Fluor 594 fluorescence in ARPE-19 cells; details: 1 uM, 1-hour incubation, serum-free
Protocol: Cellular uptake and localization of peptide-conjugated biotin molecules were determined in HK-2 human renal epithelial cells and ARPE-19 human retinal pigment epithelial cells (ATCC, Manassas, VA). HK-2 cells were cultured in Dulbecco's Modified Eagle's Medium (DMEM) containing 1 g/L glucose and 10% fetal bovine serum (FBS), 100 units/ml penicillin and 100 ug/ml streptomycin. ARPE-19 cells were cultured in DMEM/F12 medium containing 1 g/L glucose and 10% fetal bovine serum (FBS), 100 units/ml penicillin and 100 ug/ml streptomycin. Cells were incubated in humidified incubator with 5% CO2 at 37° C. HK-2 cells and ARPE-19 cells were seeded in 35 mm dish at an initial density of 5×10^4 cells. FBS was removed from the culture medium for 3 days to deplete endogenous biotin in the cells. […]
Biotin uptake was determined using Streptavidin binding. […] By using Alexa Fluor 594-conjugated streptavidin, it is possible to visualize biotin uptake using fluorescence microscopy. […] Live cell image buffer was added and Alexa-594 fluorescence (Ex/Em=591/614 nm) and Hoechst fluorescence ([…]) was observed using the Nikon Eclipse Ti2 fluorescence microscope (100×oil objective). Ten random fields from each sample were quantified by NIS-Elements Imaging Software (Nikon) for streptavidin fluorescence and normalized to Hoechst fluorescence to account for number of cells per field.

ARPE-19 cells [6] = test: Cell number and viability after 30 days of serum deprivation; assay type: cell-based, human; details: 10 nM
Protocol: (§5) Cell viability was measured using the Alamar Blue Cell Proliferation Assay (Bio-Rad), according to manufacturer's protocol. Alamar Blue uses resazurin to measure reducing power of living cells. The weakly fluorescent resazurin is reduced to the highly fluorescent resorufin when reduced by cellular metabolism. Briefly, alamar blue reagent (10 ul) was added to the culture medium and incubated for 1 h at 37° C. Fluorescence from resorufin (Ex/Em 530/590 nm) was detected using a microplate reader (SpectraMax iD3, Molecular Devices).
In the second model, ARPE-19 cells were grown in serum-free DMEM in the absence or presence of peptide-conjugated biotin molecules for 30 days. Serum-free media was supplemented with 10 nM of SPN12, SPN15 or SPN16 compounds (all at 10 nM) was replaced every 3 days. Culture medium was replaced every 3 days.

ARPE-19 cells [7] = test: In vitro scratch assay (scratch area); assay type: cell-based, human
Excerpt: as §1, §2

HK-2 cells [8] = test: Cell viability (Alamar Blue) after 11 days of serum starvation; assay type: cell-based, human; details: 10 nM, vs serum-free control
Protocol: In the first model, HK-2 cells were cultured in 96-well plates in serum-free DMEM alone or in serum-free DMEM containing 10 nM of SPN11 or SPN12 for 11 days. Culture medium was replaced every 3 days.
as §5

HK-2 cells [9] = test: Cellular ATP in extreme starvation model (serum-free 5% DMEM in PBS, 3 days); assay type: cell-based, human; details: 10 nM
Protocol: ATP was measured using the ApoSENSOR ATP Bioluminescence Assay Kit (BioVision) according to manufacturer's protocol. This kit utilizes luciferase to catalyze the formation of light from ATP and luciferin. Briefly, cells were treated with 100 ul of Nuclear Releasing Buffer for 5 min at RT with gentle shaking. 10 ul of ATP Monitoring Enzyme was added to cell lysate, and luminescence was measured using a microplate reader (SpectraMax iD3, Molecular Device). ATP levels were normalized to the serum-free DMEM control group (arbitrarily set to 1.0).
The second model uses an extreme starvation model whereby HK-2 cells were cultured in 96-well plates in serum-free 5% DMEM in PBS (phosphate-buffered saline) for 3 days. Cells were treated with 10 nM free biotin or peptide-conjugated biotin molecules. All treatments were carried out with N=6 in each experiment.

[10] = system: ARPE-19 human retinal pigment epithelial cells; test: Mitochondrial localization: co-localization with cytochrome c oxidase subunit 4 (COX4); assay type: cell-based; details: ARPE-19 cells, 1 uM, 2 hours, serum-free DMEM/F12
Protocol: Cells were fixed with 4% PFA at RT for 10 min and then permeabilized with 0.1% Triton X-100 at RT for 10 min. Cells were blocked with 2% BSA (bovine serum albumin) at RT for 30 min, and then incubated with primary antibody for cytochrome c oxidase subunit 4 (COX4), a major protein complex expressed on the inner mitochondrial membrane. The rabbit polyclonal COX4 antibody (Invitrogen PAS-29992, Waltham, MA) was used at 1:500 dilution in 2% BSA at 4° C. overnight.

## O=C(O)CCCC[C@@H]1SC[C@@H]2NC(=O)N[C@@H]21 [biotin]
HK-2 cells [1]
  scratch area after 24 hours, microscopic images FIG. 15: small effect on reducing scratch area
  closure of the scratch area compared to control, FIG. 16 and FIG. 17: significantly accelerated the closure of the scratch area
[2]
  number of proliferating (PCNA-positive) cells at the edge of the scratch, images FIG. 22: no effect
[2]; compared to control
  increase of the percent of proliferating cells at the edge of the scratch, FIG. 23: without effect
[3]
  number of proliferating cells normalized to all nuclei, FIG. 21: small and did not reach statistical significance
HK-2 cells [4]
  number of cells with good mitochondrial potential (TMRM) at scratch edge, images FIG. 24: no effect
  mitochondrial potential (red fluorescence) normalized to nuclear number, FIG. 25: did not reach statistical significance

## N=C(N)NCCC[C@@H](NC(=O)CCCC[C@@H]1SC[C@@H]2NC(=O)N[C@@H]21)C(=O)N[C@@H](Cc1ccc(O)cc1)C(=O)N[C@H](CCCNC(=N)N)C(=O)N[C@@H](Cc1ccccc1)C(=O)N[C@@H](CCCCNC(=O)CCCC[C@@H]1SC[C@@H]2NC(=O)N[C@@H]21)C(N)=O [SPN16, D-Biotin-D-Arg-L-Tyr-D-Arg-L-Phe-L-Lys(biotinyl)-NH2] (Biotin-[dR]Y[dR]FK(Biotin)-NH2)
[5]
  intracellular streptavidin staining (cellular uptake of biotin), microscopic images FIG. 4: intense red staining with a perinuclear distribution
ARPE-19 cells [6]; 30 days of serum deprivation
  cell viability after serum deprivation compared to control, FIG. 9: doubled
ARPE-19 cells [6]; 30 days serum-free
  cell number after prolonged serum deprivation, microscopic images FIG. 8: increased cell number
HK-2 cells [1]
  closure of the scratch area compared to control, FIG. 16 and FIG. 17: significantly accelerated the closure of the scratch area
  effectiveness in reducing scratch area compared to free biotin, FIG. 16 and FIG. 17: three times more effective
ARPE-19 cells [7]
  wound healing (scratch closure), FIG. 18: accelerated wound healing

## N=C(N)NCCC[C@H](NC(=O)[C@@H](N)Cc1c[nH]c2ccccc12)C(=O)N[C@@H](Cc1c[nH]c2ccccc12)C(=O)N[C@@H](CCCCNC(=O)CCCC[C@@H]1SC[C@@H]2NC(=O)N[C@@H]21)C(N)=O [SPN11, L-Trp-L-Arg-L-Trp-L-Lys(biotinyl)-NH2] (H-WRWK(Biotin)-NH2; N-terminus assumed)
HK-2 cells [8]
  improvement of cell viability in the absence of serum, FIG. 7: 35%
HK-2 cells [9]
  ATP content compared to free biotin under extreme starvation, FIG. 12: doubling
HK-2 cells [1]
  scratch area after 24 hours, microscopic images FIG. 15: almost completely closed
  closure of the scratch area compared to control, FIG. 16 and FIG. 17: significantly accelerated the closure of the scratch area
  effectiveness in reducing scratch area compared to free biotin, FIG. 16 and FIG. 17: twice as effective
[2]
  number of proliferating (PCNA-positive) cells at the edge of the scratch, images FIG. 22: increased the number of proliferating cells
[3]
  number of proliferating cells normalized to all nuclei, FIG. 21: doubled
[3]; compared to free biotin
  number of proliferating (PCNA-positive) cells at the edge of the scratch, images FIG. 20: increased the number of proliferating cells
HK-2 cells [4]
  number of cells with good mitochondrial potential (TMRM) at scratch edge, images FIG. 24: increased the number of cells with good mitochondrial potential
  mitochondrial potential (red fluorescence) normalized to nuclear number, FIG. 25: significantly increased mitochondrial potential

## N=C(N)NCCC[C@@H](NC(=O)[C@@H](Cc1c[nH]c2ccccc12)NC(=O)CCCC[C@@H]1SC[C@@H]2NC(=O)N[C@@H]21)C(=O)N[C@H](Cc1c[nH]c2ccccc12)C(=O)N[C@H](CCCCN)C(=O)O [SPN08, D-Biotin-D-Trp-D-Arg-D-Trp-D-Lys-OH] (Biotin-[dW][dR][dW][dK]-OH)
[2]
  number of proliferating (PCNA-positive) cells at the edge of the scratch, images FIG. 22: increased the number of proliferating cells

## Cc1cc(O)cc(C)c1C[C@H](NC(=O)[C@@H](CCCNC(=N)N)NC(=O)CCCC[C@@H]1SC[C@@H]2NC(=O)N[C@@H]21)C(=O)N[C@@H](CCCCN)C(=O)N[C@@H](Cc1ccccc1)C(N)=O [SPN05, D-Biotin-D-Arg-L-(2′6′-dimethylTyr)-L-Lys-L-Phe-NH2] (Biotin-[dR][Dmt]KF-NH2)
[10]
  co-localization of biotin staining with COX4 staining (inner mitochondrial membrane), FIG. 6: co-localization

## N=C(N)NCCC[C@@H](NC(=O)[C@H](N)Cc1c[nH]c2ccccc12)C(=O)N[C@H](Cc1c[nH]c2ccccc12)C(=O)N[C@H](CCCCNC(=O)CCCC[C@@H]1SC[C@@H]2NC(=O)N[C@@H]21)C(=O)O [SPN09, D-Trp-D-Arg-D-Trp-D-Lys(biotinyl)-OH] (H-[dW][dR][dW][dK](Biotin)-OH; N-terminus assumed)
[2]
  number of proliferating (PCNA-positive) cells at the edge of the scratch, images FIG. 22: increased the number of proliferating cells
